Assay [1] concerns the target T1, Catharanthus roseus 5 (PRISE5, ISY) (Catharanthus roseus, UniProt K7WDL7).
T1 construct: codon-optimized gene from earlier study in pOPINF, N-terminal His6 tag (no cleavage told), E. coli
Kind of assay: NADPH consumption at […] nm. Type of assay: biochemical. Particulars: read-out: Progesterone / KM; 250 μM NADPH, 50 mM HEPES/NaOH pH 7.0, 100 mM NaCl, 25 °C, 1.5% ethanol.

Assay [2] addresses T2, Digitalis purpurea 2 (Digitalis purpurea, UniProt D2JSQ9).
T2 construct: gene P5BR2; synthetic gene in pOPINF, N-terminal His6 tag (no cleavage told), E. coli
Briefly: NADPH consumption at […] nm. Type of assay: biochemical. Particulars: 250 μM NADPH, 50 mM HEPES/NaOH pH 7.0, 100 mM NaCl, 25 °C, 0.1% tetrahydrofuran; read-out: 8-Oxogeranial / KM.

These results are taken from article PMC7467569, “The Progesterone 5β-Reductase/Iridoid Synthase Family: A Catalytic Reservoir for Specialized Metabolism across Land Plants” (ACS Chemical Biology, 2020).

Regarding `CC(=O)[C@H]1CC[C@H]2[C@@H]3CCC4=CC(=O)CC[C@]4(C)[C@H]3CC[C@]12C` [progesterone], in assay [1], the Km amounted to 28.8 ± 11.5 µM.
On to `C/C(C=O)=C\CC/C(C)=C/C=O` [8-oxogeranial], for which, in assay [2], the Km turned out to be 17.7 ± 5.9 µM.
